Here are results for 19 molecules from PMC6179041, “The insight of in vitro and in silico studies on cholinesterase inhibitors from the roots of Cimicifuga dahurica (Turcz.) Maxim” (Journal of Enzyme Inhibition and Medicinal Chemistry, 2018).

“Also recorded” adds a separate entry of the source. Read-outs that look alike come from different tables or passages of the source.

One assay deals with T1, AChE (Electrophorus electricus, UniProt O42275).
T1 construct: purchased Sigma-Aldrich C3389
As to the kind of experiment: biochemical. It counts as biochemical. To be noted: for inhibition at 100 µM: read-out: AChE inhibitory activity at 100 μM (%).

The target of a further assay is BuChE (Equus caballus, UniProt P81908). As to the kind of experiment: biochemical. The settings on record: for inhibition at 100 µM: read-out: BuChE inhibitory activity at 100 μM (%); for Binding mode (BuChE): Lineweaver-Burk plots. It counts as biochemical.
Setting [1] is: 100 μM compound, mean ± SEM, tested three times.
The mark [2] stands for this setting: mean ± SEM, tested three times, read-out: AChE IC50.
Where [3] appears, read: mean ± SEM, tested three times, read-out: BuChE IC50.
Where [4] appears, read: secondary replot, read-out: Ki (μM) on BuChE.

T1 sequence (O42275 24-633): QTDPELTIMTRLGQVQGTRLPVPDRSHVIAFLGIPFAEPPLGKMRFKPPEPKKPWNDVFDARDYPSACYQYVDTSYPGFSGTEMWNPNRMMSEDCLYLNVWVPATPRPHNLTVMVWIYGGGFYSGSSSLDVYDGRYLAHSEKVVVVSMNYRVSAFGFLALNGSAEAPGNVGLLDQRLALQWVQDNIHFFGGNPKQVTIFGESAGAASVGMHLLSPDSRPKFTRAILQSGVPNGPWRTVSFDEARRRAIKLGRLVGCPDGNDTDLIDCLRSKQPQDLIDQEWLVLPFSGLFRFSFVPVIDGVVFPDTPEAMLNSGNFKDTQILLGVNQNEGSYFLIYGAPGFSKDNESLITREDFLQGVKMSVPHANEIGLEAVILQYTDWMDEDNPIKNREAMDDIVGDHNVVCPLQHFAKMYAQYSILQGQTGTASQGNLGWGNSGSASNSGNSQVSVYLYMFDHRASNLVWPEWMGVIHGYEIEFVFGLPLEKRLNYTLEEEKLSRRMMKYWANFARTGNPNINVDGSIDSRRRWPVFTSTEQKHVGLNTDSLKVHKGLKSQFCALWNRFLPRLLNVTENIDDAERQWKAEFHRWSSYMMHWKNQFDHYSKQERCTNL
Sequence of BuChE (P81908 whole entry): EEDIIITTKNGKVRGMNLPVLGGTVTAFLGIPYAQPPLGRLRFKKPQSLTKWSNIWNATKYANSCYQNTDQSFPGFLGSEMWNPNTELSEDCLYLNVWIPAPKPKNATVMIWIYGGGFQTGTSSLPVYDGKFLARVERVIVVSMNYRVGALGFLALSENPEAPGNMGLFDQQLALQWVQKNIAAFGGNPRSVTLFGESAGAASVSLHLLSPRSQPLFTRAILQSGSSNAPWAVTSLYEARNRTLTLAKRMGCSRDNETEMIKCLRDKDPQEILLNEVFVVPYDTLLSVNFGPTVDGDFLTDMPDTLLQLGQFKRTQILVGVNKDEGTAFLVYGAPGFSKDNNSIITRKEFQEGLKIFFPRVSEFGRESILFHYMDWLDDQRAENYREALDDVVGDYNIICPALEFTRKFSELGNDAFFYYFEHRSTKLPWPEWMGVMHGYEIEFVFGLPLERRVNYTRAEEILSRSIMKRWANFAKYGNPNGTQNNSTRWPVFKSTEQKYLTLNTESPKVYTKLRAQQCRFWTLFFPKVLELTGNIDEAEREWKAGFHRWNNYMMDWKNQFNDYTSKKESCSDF

With `C[C@@H]1C[C@H]2O[C@]3(O[C@@H]2C(C)(C)O)[C@H]1[C@@]1(C)CC[C@@]24C[C@@]25CC[C@H](O)C(C)(C)[C@@H]5CC=C4[C@]1(C)[C@H]3O` [Compound 5, 7,8-didehydrocimigenol], at AChE, the inhibition at 100 µM turned out to be 43.1 ± 5.6%. Besides, on BuChE, the IC50 is 60.9 ± 1.2 µM and the inhibition at 100 µM is 53.6 ± 0.9%.

In the case of `CC(=O)OC(C)(C)C1OC23OC1CC(C)C2C1(C)CCC24CC25CCC(O)C(C)(C)C5CC=C4C1(C)C3O` (stereo not shown) [Compound 8, 25-O-acetyl-7,8-didehydrocimigenol], at AChE, it took 69.5 ± 1.2 µM to reach half-maximal inhibition (IC50) and the inhibition at 100 µM turned out to be 55.4 ± 2.6%. Moreover, the inhibition at 100 µM at BuChE is 18 ± 0.4%.

On to `CC(C)=CC=C1C(=O)Nc2ccccc21` [Compound 4, (E)-3‐(3′-methyl-2′-butenylidene)-2-indolinone], for which the inhibition at 100 µM on AChE (setting [1]) amounted to 61 ± 4.6%; at BuChE (setting [1]), 93.1 ± 0.6%. Further, the IC50 on AChE (setting [2]) turned out to be 48 ± 6.8 µM; at BuChE (setting [3]) it was 6.5 ± 2.5 µM. In addition, the “Binding mode (BuChE)” value on BuChE was “noncompetitive mode; also recorded: Non-competitive type (BuChE)”. Also, at BuChE (setting [4]), the Ki amounted to 3.5 ± 1.5 µM.

Regarding `CC(=O)O[C@H]([C@H]1C[C@@H](C)[C@H]2[C@@](O)(O1)[C@H](O)[C@@]1(C)C3=CC[C@H]4C(C)(C)[C@@H](O)CC[C@@]45C[C@@]35CC[C@]21C)C(C)(C)O` [Compound 12, 24-epi-24-O-acetyl-7,8-didehydroshengmanol], the figures for the inhibition at 100 µM on AChE and at BuChE were 28 ± 4% and 18.6 ± 0.3%, respectively.

Consider `C=C(C)C1OC23OC1CC(C)C2C1(C)CCC24CC25CCC(OC2OCC(O)C(O)C2O)C(C)(C)C5CC=C4C1(C)C3O` [Compound 19, 7,8-didehydro-25-anhydrocimigenol-3-O-β-D-xylopyranoside], for which the figures for the inhibition at 100 µM at AChE and on BuChE were 21.5 ± 1.7% and 38.5 ± 0.1%, respectively.

Regarding `CC(=O)OC1C(OC2CCC34CC35CCC3(C)C6C(C)CC7OC6(OC7C(C)(C)O)C(O)C3(C)C5=CCC4C2(C)C)OCC(O)C1O` (stereo not shown) [Compound 18, cimiricaside A], the inhibition at 100 µM on AChE came out at 23.1 ± 6.8%. Also, at BuChE, the IC50 is 51 ± 0.5 µM and the inhibition at 100 µM worked out at 54.4 ± 1.3%.

Turning to `CC1CC2OC3(OC2C(C)(C)O)C1C1(C)CCC24CC25CCC(O)C(C)(C)C5CC=C4C1(C)C3O` (stereo not drawn) [Compound 10, 24-epi-7,8-didehydrocimigenol], the inhibition at 100 µM at AChE came out at 31.8 ± 0.5%; at BuChE, 41.1 ± 2.2%.

For `COC(=O)/C=C/c1ccc(O)c(OC)c1` [Compound 2, ferulic acid methyl ester], the inhibition at 100 µM at AChE (setting [1]) amounted to 58 ± 0.6%; at BuChE (setting [1]), 62.3 ± 0.3%. Also, the IC50 at AChE (setting [2]) came to 52.4 ± 3.7 µM; at BuChE (setting [3]), 37.1 ± 1.5 µM.

For the molecule `C=C(C)[C@H]1O[C@@]23O[C@@H]1C[C@@H](C)[C@@H]2[C@@]1(C)CC[C@@]24C[C@@]25CC[C@H](O[C@@H]2OC[C@@H](O)[C@H](O)[C@H]2O)C(C)(C)[C@@H]5CCC4[C@]1(C)[C@H]3O` (stereo partly drawn) [Compound 15, 25-anhydrocimigenol-3-O-β-D-xylopyranoside], the inhibition at 100 µM on AChE was 37.1 ± 0.5%. On BuChE, the half-maximal inhibitory concentration (IC50) was 33.3 ± 5 µM and the inhibition at 100 µM amounted to 60.7 ± 0.6%.

On to `CC(C)=CC=C1C(=O)N(C)c2ccccc21` [Compound 3, (E)-3‐(3′-methyl-2′-butenylidene)-1-methyl-2-indolinone], for which the inhibition at 100 µM at AChE (setting [1]) came to 53.8 ± 0.1%; at BuChE (setting [1]) it was 88.7 ± 1.3%. The figures for the IC50 on AChE (setting [2]) and on BuChE (setting [3]) were 95.8 ± 5.1 µM and 13.8 ± 1.2 µM, respectively. On BuChE, the “Binding mode (BuChE)” value was “noncompetitive mode; also recorded: Non-competitive type (BuChE)”. Besides, the inhibitory constant (Ki) on BuChE (setting [4]) was 4.9 ± 2.1 µM.

Turning to `CC(=O)OC(C)(C)C1OC23OC1CC(C)C2C1(C)CCC24CC25CCC(OC2OCC(O)C(O)C2O)C(C)(C)C5CC=C4C1(C)C3O` [Compound 14, 25-O-acetyl-7,8-didehydrocimigenol 3-O-β-D-xylopyranoside], at AChE, the inhibition at 100 µM is 24.9 ± 6.2%. On BuChE, 22.6 ± 0.4 µM corresponded to half-maximal inhibition (IC50), affinity was put at a Ki of 10.7 ± 1.3 µM, the “Binding mode (BuChE)” value was “competing with substrate; also recorded: Competitive type (BuChE)” and the inhibition at 100 µM stood at 55 ± 0.7%.

`COc1ccc(/C=C/C(=O)OCC(=O)c2ccc(O)c(O)c2)cc1O` [Compound 1, cimiciphenone]: the inhibition at 100 µM on AChE (setting [1]) worked out at 65.4 ± 0.9%; at BuChE (setting [1]), 13.6 ± 0.7%. Further, the “Binding mode (AChE)” value at AChE (Lineweaver-Burk plots) was “competitive inhibitor; also recorded: Competitive type (AChE)”. The half-inhibitory concentration (IC50) at AChE (setting [2]) worked out at 16.7 ± 1.9 µM. For the same molecule, at AChE (secondary replot), affinity was put at a Ki of 16.2 ± 0.9 µM.

In the case of “3-O-β-D-xylopyranosyl-24S,25-dihydroxy-15-oxo-acta-(16R,23R)-16,23-monoxoside [Compound 17]”, the “AChE inhibitory activity at 100 μM (%)” value at AChE (setting [1]) is 47.1 ± 1.6%. Further, the “BuChE inhibitory activity at 100 μM (%)” value at BuChE (setting [1]) was 55.4 ± 0.8%. Also, at BuChE (setting [3]), the half-maximal inhibitory concentration (IC50) worked out at 84.1 ± 5.7 µM.

With `C=C(C)[C@H]1O[C@@]23O[C@@H]1C[C@@H](C)[C@@H]2[C@@]1(C)CC[C@@]24C[C@@]25CC[C@H](O)C(C)(C)[C@@H]5CC=C4[C@]1(C)[C@H]3O` [Compound 13, 25-anhydrocimigenol], the inhibition at 100 µM came to 42.8 ± 0.8% at AChE and 44.9 ± 1.1% at BuChE.

For `C=C(C)C1OC23OC1CC(C)C2C1(C)CCC24CC25CCC(O)C(C)(C)C5CC=C4C1(C)C3O` (stereo not shown) [Compound 9, 25-anhydro-7,8-didehydrocimigenol], the inhibition at 100 µM on AChE stood at 48.6 ± 0.6%. Besides, at BuChE, the 50% inhibitory concentration (IC50) was 35.1 ± 1.2 µM and the inhibition at 100 µM worked out at 51 ± 1.9%.

As for `CC(=O)OC(C)(C)[C@H]1O[C@@]23O[C@@H]1C[C@@H](C)[C@@H]2[C@@]1(C)CC[C@@]24C[C@@]25CC[C@H](O)C(C)(C)[C@@H]5CC[C@H]4[C@]1(C)[C@H]3O` [Compound 11, 25-O-acetylcimigenol], the inhibition at 100 µM at AChE came to 15.8 ± 4.3%; on BuChE it was 14 ± 2.6%.

On to `CC1CC2OC3(OC2C(C)(C)O)C1C1(C)CCC24CC25CCC(OC2OCC(O)C(O)C2O)C(C)(C)C5CC=C4C1(C)C3O` [Compound 16, 24-epi-7,8-didehydrocimigenol 3-O-β-D-xylopyranoside], for which the figures for the inhibition at 100 µM on AChE and at BuChE were 19 ± 2.5% and 62 ± 0.8%, respectively. The same molecule gave an IC50 at BuChE of 31 ± 5.5 µM.

Turning to `CC(=O)O[C@@H]1C[C@@]23C[C@@]24CC[C@H](O)C(C)(C)[C@@H]4CC=C3[C@]2(C)C[C@@H]3O[C@]4(C[C@@H](C)[C@@H]3[C@@]12C)O[C@H](O)[C@@]1(C)O[C@@H]41` [Compound 7, 25-triepoxy-12β-acetoxy-3β,26-dihydroxy-9,19-cyclolanost-7-ene], at AChE, the concentration for half-maximal inhibition (IC50) was determined as 92.1 ± 2.2 µM and the inhibition at 100 µM was 52 ± 0.1%. Besides, the inhibition at 100 µM at BuChE is 41 ± 0.1%.

Consider `CC(=O)O[C@@H]([C@H]1C[C@@H](C)[C@H]2[C@@](O)(O1)[C@H](O)[C@@]1(C)C3=CC[C@H]4C(C)(C)[C@@H](O)CC[C@@]45C[C@@]35CC[C@]21C)C(C)(C)O` [Compound 6, 24-epi-24-O-acetyl-7,8-didehydroshengmanol], for which the IC50 against AChE came to 94.9 ± 3.5 µM; against BuChE, 90.9 ± 6 µM. Moreover, the values for the inhibition at 100 µM on AChE and at BuChE were 53.7 ± 1.6% and 57.3 ± 0.3%, respectively.
